US20060204502A1 (priority 2004, published 2006)
Several values for one entry are separate records, joined by “and”; a condition that tells them apart may be missing. Identical values can stand only once.

Legend:
HIF-1α mRNA = assay: Real-Time RT-PCR of HIF-1α mRNA, A375 cells in hypoxia; format: cell-based, human; conditions: 4 hours hypoxia
HIF-1α = HIF-1α protein immunoblot in hypoxic cells; format: cell-based, human; conditions: for HIF-1α protein expression: 100 nM, 4 hours hypoxia
Method: Cell culture and hypoxia treatment: Cells were maintained in DMEM (A375), EMEM (NCTC 2544) or RPMI 1640 (U87MG, U2OS) medium containing 10% fetal calf serum, penicillin (100 U/ml), streptomycin (100 ug/ml), and L-glutamine (2 mM) at 37° C. in 5% CO2/95% air. Cells were passaged two or three times weekly at a ratio between 1:5 and 1:10. Hypoxic exposure was in BBL™ GasPak pouch™ System (Becton Dickinson) that reduce oxygen concentration of less than 2% within 2 hours of incubation at 35° C.
Cells were harvested and washed with ice-cold PBS containing 1 mM sodium orthovanadate, AEBSF 104 mM, aprotinin 0.08 mM, leupeptin 2 mM, bestatin 4 mM, pepstatin A 1.5 mM, E-64 1.4 mM. Cells were then lysed in Triton lysis buffer. The protein concentration was determined using BCA protein assay kit (Pierce). […] The gel was then electroblotted onto a nitrocellulose membrane. Membranes were blocked with 5% nonfat dry milk in PBS containing 0.1% Tween-20 and incubated with antibodies against HIF-1α (1:250 dilution) and HIF-1β (1:1000 dilution) in 5% nonfat dry milk in PBS/0.1% Tween-20 overnight at 4° C. Aliquots of total protein sample (50 ug) were analyzed using antibodies specific for phosphorylated (Thr183/Tyr185) or total p44/p42 MAPK (1:5000 dilution), phosphorylated (Thr180/Tyr182) or total p38 MAPK (1:1000 dilution) and for A3 receptor (1 µg/ml dilution). Filters were washed and incubated for 1 hour at room temperature with peroxidase-conjugated secondary antibodies against mouse and rabbit IgG (1:2000 dilution). […] The membranes were then stripped and reprobed with tubulin (1:250) to ensure equal protein loading.
U0126 was used at 10 and 30 uM as inhibitor of MEK-1 and MEK-2 to prevent p44 and p42 MAPK activation. SB202190 was used at 1 and 10 uM as inhibitor of p38 MAPK.
Densitometry analysis: The intensity of each band in immunoblot assay was quantified using molecular analyst/PC densitometry software (Bio-Rad). […] The data were presented as the mean±S.E., and analyzed by the Student's test.

A375 cells [1] = assay: Colony formation assay of A375 cells; format: cell-based, human
Method: FIG. 2 illustrates colony formation assay of A375 cells. Cells were treated with different drugs and colonies were counted after 7 days. The values represent the mean±SEM of four independent experiments. […] Analysis was by ANOVA followed by Dunnett's test.
Control plates received the same volume of DMSO alone. After 7 days of growth at 37° C. in humidified atmosphere containing 5% CO2, the cells were fixed with absolute methanol for 5′ and stained with 1/10 Giemsa/phosphate-buffered saline (PBS) staining solution for 10 minutes. Staining solution was removed and colonies of greater than 30 cells were scored as survivors. For each treatment, six individual wells were scored.

p44/p42 MAPK = p44/p42 MAPK phosphorylation immunoblot, A375 cells in hypoxia; format: cell-based, human; conditions: 4 hours hypoxia, nanomolar concentrations, maximum at 100 nM
Method: (§1) Cells were harvested and washed with ice-cold PBS containing 1 mM sodium orthovanadate, AEBSF 104 mM, aprotinin 0.08 mM, leupeptin 2 mM, bestatin 4 mM, pepstatin A 1.5 mM, E-64 1.4 mM. Cells were then lysed in Triton lysis buffer. The protein concentration was determined using BCA protein assay kit (Pierce). Equivalent amounts of protein (35 ug) were subjected to electrophoresis on 7.5% sodium dodecyl sulfate-acrylamide gel. The gel was then electroblotted onto a nitrocellulose membrane. Membranes were blocked with 5% nonfat dry milk in PBS containing 0.1% Tween-20 and incubated with antibodies against HIF-1α (1:250 dilution) and HIF-1β (1:1000 dilution) in 5% nonfat dry milk in PBS/0.1% Tween-20 overnight at 4° C. Aliquots of total protein sample (50 ug) were analyzed using antibodies specific for phosphorylated (Thr183/Tyr185) or total p44/p42 MAPK (1:5000 dilution), phosphorylated (Thr180/Tyr182) or total p38 MAPK (1:1000 dilution) and for A3 receptor (1 µg/ml dilution). Filters were washed and incubated for 1 hour at room temperature with peroxidase-conjugated secondary antibodies against mouse and rabbit IgG (1:2000 dilution). […] The membranes were then stripped and reprobed with tubulin (1:250) to ensure equal protein loading. […]

p38 MAPK = p38 MAPK phosphorylation immunoblot, A375 cells in hypoxia; format: cell-based, human; conditions: 4 hours hypoxia, 10-1000 nM
Method: as §1

[2] = tested on: Human Pancreatic Cancer Panc-1; assay: MTT growth inhibitory assay, Panc-1; format: cell-based; conditions: Panc-1 cells, A3 antagonist at 0.5 μg/ml
Method: (§2) Interpretation of the EF is dependent upon the concentrations of A3 receptor antagonist tested. For example, when using very low concentrations of A3 receptor antagonist, any EF above 1.0 is synergistic if the A3 receptor antagonist concentration is below the threshold of cell growth inhibition.
(§3) The cells are sub-cultured twice a week.
(§4) Vinblastine sulfate salt was obtained from Sigma Chemical Co., (V1377). Irinotecan was diluted with culture medium. All other agents were dissolved in 100% DMSO at appropriate concentrations. The DMSO stock solutions were diluted 100-fold with growth medium so that the final DMSO concentration was 1%.

[3] = tested on: Human Colon Carcinoma HT29; assay: MTT growth inhibitory assay, HT29; format: cell-based; conditions: HT29 cells, A3 antagonist at 0.5 μg/ml
Method: as §2, §3, §4

Human Melanoma A375 = assay: MTT growth inhibitory assay, A375; conditions: A375 cells
Method: An exemplary assay may comprise the following steps: Cells (1000-1500 cells/well) are seeded in a 96-well micro culture plate in a total volume of 100 μl/well. After overnight incubation in a humidified incubator at 37° C. with 5% CO2-95% air, chemotherapeutic drug solutions diluted with culture medium at various concentrations are added in the amount of 100 μl to each well. The plates are placed in a humidified incubator at 37° C. with 5% CO2-95% air for 7-10 days. The plates are then centrifuged briefly and 100 μl of the growth medium is removed. Cell cultures are incubated with 50 μl of MTT [3-(4,5-dimethylthiazol-2-yl)-2,5-diphenyl-tetrazolium bromide] reagent (1 mg/ml in Dulbecco's phosphate-buffered saline) for 4 hr at 37° C. The resultant purple formazan precipitate is solubilized with 200 μl of 0.04 N HCl in isopropanol. Absorbance is measured at a wavelength of 595 nm and at a reference wavelength of 655 nm using a Bio-Rad Model 3550 Microplate Reader. Preferably, all tests are run in duplicate for each dose level. […] The EZED50 computer program estimates the concentration of agent that inhibits cell growth by 50% as compared to the control cells. This is termed the IC50 and is determined by curve fitting test data using the following four logistic equation. [formula]
If testing concentrations are properly selected (i.e., no or little growth inhibition at low concentrations and complete inhibition at high concentrations), EZED50 program fits the data extremely well and estimates the IC50 value accurately. […] In these instances, the data could be re-analyzed by fixing the Amax value.
In this case, the IC50 could be estimated more accurately if both the Amax and Amin values are fixed. Although it may be feasible to estimate IC50 value by fixing Amax and/or Amax and Amin without repeating the experiment, the best way to determine the IC50 accurately is to decrease or increase the concentrations of the test agent and repeat the test.
Inhibitory assay testing is also used to determine enhanced therapeutic effects from combining A3 receptor antagonists with other tumor inhibiting agents. The inhibitory cell growth assays are run with and without selected concentrations of A3 receptor antagonists. An enhanced therapeutic effect is present when the IC50 of the tumor inhibiting agent is lower with the A3 receptor antagonist.
Quantitatively, the enhancement factor (EF) is calculated by dividing the IC50 value of the tumor inhibiting agent for a tumor cell line by the IC50 value of the agent with A3 receptor antagonist for the same cell line: [formula]
The cells are cultured in a T25 Falcon Tissue Culture flask in a humidified incubator at 37° C. with 5% CO2-95% air. The cells are sub-cultured twice a week.

[4] = tested on: Human Lung Carcinoma SKMES; assay: MTT growth inhibitory assay, SKMES; format: cell-based; conditions: SKMES cells, A3 antagonist at 0.5 μg/ml
Method: as §2, §3, §4

P-gp = P-gp (Homo sapiens, UniProt P08183); format: cell-based; conditions: HeL023 cells; 10 μM
Method: Rhodamine 123 Efflux Assay: 5×10^5 cells from each subline were loaded with 50 ng/ml of rhodamine 123 for 30 minutes at 37 C in medium. The cells were washed and resuspended in dye-staining agent free medium for 3 hours at 37 C. to allow rhodamine 123 efflux. The cells were then washed twice and the fluorescence of intracellular rhodamine 123 were analysed with Flow cytometer (residual fluorescence FRES). The fluorescence was compared with loaded cells maintained at 4 C. to prevent drug export (maximal fluorescence FMAX). […] Cells from each subline that were not being exposed to rhodamine 123 were used as negative controls.
Rhodamine 123 (Rh123) retention, a P-gp functional assay, was studied in all cell lines. This assay was performed by incubating cells with Rh123 and determining Rh123 accumulation by measuring its fluorescence. The maximum load of Rh123 (FMAX) was quantified at the end of treatment harvesting the cells and storing them at 4° C. to prevent any active Rh123 efflux. The P-gp drug efflux was allowed incubating Rh123-loaded cells in fresh new medium Rh123-free for 3 hours at 37° C. After this incubation, residual fluorescence (FRES) was measured and compared to FMAX.

[5] = molecular target: T1, human A3 adenosine receptor (Homo sapiens, UniProt P0DMS8); assay: Binding affinity to A3 adenosine receptor in A375 cells
T1 construct: endogenous in cells; host or cells: A375 human melanoma cells (ATCC)
T1 sequence (P0DMS8 1-318): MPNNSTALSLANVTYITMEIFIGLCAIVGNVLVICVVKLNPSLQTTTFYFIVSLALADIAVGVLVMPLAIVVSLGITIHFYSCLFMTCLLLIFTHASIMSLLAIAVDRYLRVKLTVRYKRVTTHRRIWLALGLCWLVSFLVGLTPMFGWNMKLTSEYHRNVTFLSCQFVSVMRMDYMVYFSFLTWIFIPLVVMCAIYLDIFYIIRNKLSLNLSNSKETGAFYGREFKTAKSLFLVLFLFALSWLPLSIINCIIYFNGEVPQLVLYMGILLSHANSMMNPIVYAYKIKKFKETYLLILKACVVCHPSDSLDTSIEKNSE

A375 cells [6] = assay: Flow cytometry cell cycle (G2/M) and apoptosis (sub-G1) analysis, A375; format: cell-based, human; conditions: Homo sapiens, A-375; antagonist dose inducing 50% of the enhancing activity to vindesine (1 nM); G2/M accumulation; A375; read-out: SEC50
Method: Flow Cytometry Analysis: A375 and NCTC2544 adherent cells were trypsinized, mixed with floating cells, washed with PBS and permeabilised in 70% (vol/vol) ethanol/PBS solution at 4° C. for at least 24 hours. Jurkat, HeL023 and PBMC cells were centrifuged for 10 minutes at 1000×g. The cell pellet was then resuspended and permeabllised in 70% (vol/vol) ethanol/PBS solution at 4° C. for at least 24 hours. The cells were washed with PBS and the DNA was stained with a PBS solution, containing 20 μg/ml of propidium iodide and 100 μg/ml of RNAse, at room temperature for 30 minutes. Cells were analysed by FACScan (Becton-Dickinson) and the content of DNA was evaluated by the Cell-LISYS program (Becton-Dickinson). Cell distribution among cell cycle phases and apoptotic cells was evaluated as previously described (Secchiero et al., 2001). Briefly, the cell cycle distribution is shown as the percentage of cells containing 2n (G1 phase), 4n (G2 and M phases), 4n>x>2n. DNA amount (S phase) judged by propidium iodide staining. The apoptotic population is the percentage of cells with DNA content lower than 2n.
After 24 hours, cells were collected for flow cytometry analysis. PD 98059 was used at 20 uM as an inhibitor of MEK to prevent MEK-1 activation. […]
EC50 values were obtained by analysing G2/M accumulation dose response curve. ECMAX values were obtained by analysing sub-G1 accumulation dose response curve. Paclitaxel values have units of ng/ml.

[7] = administered at 100 mg/m^2; cited from earlier work

Sequence of P-gp (P08183 whole entry): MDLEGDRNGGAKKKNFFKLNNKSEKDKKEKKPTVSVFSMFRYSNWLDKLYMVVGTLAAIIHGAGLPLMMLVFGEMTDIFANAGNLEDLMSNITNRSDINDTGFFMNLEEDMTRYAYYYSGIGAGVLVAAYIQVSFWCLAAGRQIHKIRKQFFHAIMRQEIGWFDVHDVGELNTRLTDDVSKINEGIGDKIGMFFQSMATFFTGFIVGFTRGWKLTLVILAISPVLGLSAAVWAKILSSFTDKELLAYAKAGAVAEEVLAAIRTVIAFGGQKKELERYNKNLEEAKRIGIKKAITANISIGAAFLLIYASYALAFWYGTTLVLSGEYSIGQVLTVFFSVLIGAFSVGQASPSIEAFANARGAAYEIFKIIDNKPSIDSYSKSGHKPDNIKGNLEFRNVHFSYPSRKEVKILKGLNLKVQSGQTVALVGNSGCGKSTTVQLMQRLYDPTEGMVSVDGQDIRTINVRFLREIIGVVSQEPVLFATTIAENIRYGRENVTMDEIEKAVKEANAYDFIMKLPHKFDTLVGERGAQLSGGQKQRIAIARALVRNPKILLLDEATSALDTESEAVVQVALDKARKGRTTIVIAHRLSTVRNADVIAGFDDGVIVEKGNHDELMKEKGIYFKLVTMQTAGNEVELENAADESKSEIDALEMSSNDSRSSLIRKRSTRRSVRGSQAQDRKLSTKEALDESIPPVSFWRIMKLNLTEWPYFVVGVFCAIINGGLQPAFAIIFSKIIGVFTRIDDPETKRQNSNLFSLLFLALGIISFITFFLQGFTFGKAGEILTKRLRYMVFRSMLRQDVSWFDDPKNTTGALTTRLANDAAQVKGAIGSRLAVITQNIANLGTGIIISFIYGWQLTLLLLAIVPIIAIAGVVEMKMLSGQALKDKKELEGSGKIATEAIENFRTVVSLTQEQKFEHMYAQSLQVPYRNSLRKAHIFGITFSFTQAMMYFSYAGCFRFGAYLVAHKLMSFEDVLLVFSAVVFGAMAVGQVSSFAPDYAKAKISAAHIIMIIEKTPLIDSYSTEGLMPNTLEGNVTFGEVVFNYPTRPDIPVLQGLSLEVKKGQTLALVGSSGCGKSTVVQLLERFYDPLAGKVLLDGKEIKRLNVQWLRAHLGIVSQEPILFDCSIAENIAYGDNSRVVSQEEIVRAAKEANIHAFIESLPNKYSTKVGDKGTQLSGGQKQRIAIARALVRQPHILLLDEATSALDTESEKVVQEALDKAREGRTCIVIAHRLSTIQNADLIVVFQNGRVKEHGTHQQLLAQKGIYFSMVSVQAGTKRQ

Which “fold increase of HIF-1α mRNA accumulation vs untreated cells” value (shortened to “fold increase”) (HIF-1α mRNA; 10 nM) does the source give for CNC(=O)[C@H]1O[C@@H](n2cnc3c(NCc4cccc(I)c4)nc(Cl)nc32)[C@H](O)[C@@H]1O [Cl-IB-MECA] here?
Its value is 1.13±0.10 fold.

And the “fold increase” value (HIF-1α mRNA; 100 nM)?
Its value is 1.25±0.15 fold.

What about the “fold increase” value (HIF-1α mRNA; 1 μM) of the same compound?
Its value is 1.19±0.13 fold.

What about the EC50 (HIF-1α; A375, hypoxia 4 hours, read-out: EC50, HIF-1α protein accumulation) of the same compound?
The EC50 was 10.6 ± 1.2 nM.

And the HIF-1α protein expression (HIF-1α; U2OS osteosarcoma)?
The HIF-1α protein expression was “significant increase”.

What about the HIF-1α protein expression (HIF-1α; U87MG glioblastoma) of the same compound?
Its HIF-1α protein expression is “significant increase”.

And the HIF-1α protein expression (HIF-1α; human keratinocytes NCTC 2544)?
Its HIF-1α protein expression is “significant increase”.

And the “colony formation, % of DMSO control” value (A375 cells [1]; 10 μM alone, colonies counted after 7 days)?
The value was 130%.

What about the “colony formation, % of DMSO control” value (A375 cells [1]; 10 μM combined with paclitaxel (0.75 μg/ml), 7 days) of the same compound?
Its value is 85%.

And the “phosphorylation of p44 and p42” value (p44/p42 MAPK)?
The value was “induced”.

And the “phosphorylation of p38 MAPK” value (p38 MAPK)?
Its value is “increased the phosphorylation of p38 MAPK in a dose-dependent manner”.

With CCN(CC)c1ccc(NC(=O)Nc2nc3nn(C)cc3c3nc(-c4ccco4)nn23)cc1.Cl [IL-10, N-1-(4-diethylamino-phenyl)-N′—S-[8-methyl-2-(2-furyl)-pyrazolo[4,3-e]1,2,4-triazolo[1,5-c]pyrimidine]-urea] as the compound, how does the “Enhancement Factor” value ([2]; enhancement of docetaxel IC50) read?
Its value is 1.4.

And the “Enhancement Factor” value ([2]; enhancement of paclitaxel IC50)?
Its value is 1.7.

What about the “Enhancement Factor” value ([3]; enhancement of docetaxel IC50) of the same compound?
Its value is 5.5.

What about the “Enhancement Factor” value ([3]; enhancement of doxorubicin IC50) of the same compound?
Its value is 1.5.

What about the “Enhancement Factor” value ([3]; enhancement of irinotecan IC50) of the same compound?
Its value is 1.2.

What about the “Enhancement Factor” value ([3]; enhancement of paclitaxel IC50) of the same compound?
The value was 2.5.

And the “Enhancement Factor” value (Human Melanoma A375; enhancement of docetaxel IC50, A3 antagonist at 0.5 μg/ml)?
Its value is 8.4.

And the “Enhancement Factor” value (Human Melanoma A375; enhancement of docetaxel IC50, A3 antagonist at 5 μg/ml)?
Its value is 2.9.

What about the “Enhancement Factor” value (Human Melanoma A375; enhancement of paclitaxel IC50, A3 antagonist at 0.5 μg/ml) of the same compound?
Its value is 3.7.

And the “Enhancement Factor” value (Human Melanoma A375; enhancement of paclitaxel IC50, A3 antagonist at 5 μg/ml)?
Its value is 8.8 and 9.2.

What about the “Enhancement Factor” value ([4]; enhancement of docetaxel IC50) of the same compound?
Its value is 2.8.

And the “Enhancement Factor” value ([4]; enhancement of irinotecan HCL IC50)?
Its value is 1.7.

And the “Enhancement Factor” value ([4]; enhancement of paclitaxel IC50)?
Its value is 2.8.

What about the “Enhancement Factor” value ([4]; enhancement of vinblastine IC50) of the same compound?
Its value is 1.4.

And the “% of Rh123 Negative Cells (cells expressing P-gp activity)” value (P-gp)?
The value was 0.4 ± 0.2%.

What does the source list for CCCCn1cc2c(nc(NC(=O)Nc3ccccc3)n3nc(-c4ccco4)nc23)n1 [MRE 3062F20, 5-N-(4-phenyl-carbumoyl)amino-8-butyl-2(2furyl)-pyrazolo-[4,3e]-1,2,4-triazolo[1,5-c]pyrimidine]?
Ki [5]: 2.3 ± 0.2 nM; EC50 (A375 cells [6]): 430 ± 40 nM; % of Rh123 Negative Cells (cells expressing P-gp activity) (P-gp): 1.0 ± 0.2%

What does the source list for CC(=O)O[C@@]12CO[C@@H]1C[C@H](O)[C@@]1(C)C(=O)[C@H](O)C3=C(C)[C@@H](OC(=O)[C@H](O)[C@@H](NC(=O)OC(C)(C)C)c4ccccc4)C[C@@](O)([C@@H](OC(=O)c4ccccc4)[C@H]21)C3(C)C [docetaxel]?
acute hypersensitivity reaction, % of patients [7]: 13%; severe hypersensitivity reaction, % of patients [7]: 1.2%
